Data from patent US11285167B2, “Synergistic nutritional neuroprotective compositions for ameliorating neural dysfunction” (CELAGENEX RESEARCH (INDIA) PVT. LTD., priority 2019, dated 2022).

Assays:
[1] = tested on: Valproic acid-induced autism disorder in albino Wistar rats; experiment: Overall autism-like behavior in VPA model of autism disorder; format: in vivo
Method: The present study was to evaluate the effect of test substances on Valproic acid induced Autism spectrum disorder in wistar rats. The animals (50 animals) were divided into five groups each group consisting of 10 animals (5 animals per sex). Animals in Group-1 were treated with vehicle (0.5% CMC), Group-2 was treated with Valproic acid (VPA) 400 mg/kg via subcutaneous route, Group-3, Group-4 and Group-5 were treated with test substance Agmatine Sulphate (25.83 mg/kg), Nicotinamide Riboside chloride (6.46 mg/kg) and Agmatine Sulphate+Nicotinamide Riboside chloride (25.83 mg/kg+6.46 mg/kg) respectively, according to the body weight of animals. At the end of the experimental period, blood was collected from each group for biochemical analyses. On postnatal day 40 (PND 40), all the animals were exposed to the Morris water maze test and Open field test for specific time periods to determine the autism-like behaviors of the test substances. […] The experiment was performed in 14-day old male and female off springs. The weight of the rat pups on the first day of the experiment was 20-40 grams. Sodium Valproate at dose of 400 mg/kg was freshly prepared and administered via subcutaneous route to the rat pups on postnatal day 14 (PND 14). […] In addition, behaviors of experimental animals were determined via Morris water maze and open field test. […]

[2] = tested on: Major depression disorder in Wistar rats; experiment: Forced swim test in Reserpine-induced major depression disorder; format: in vivo; settings: for Immobility / mobility in forced swim test (in words): compared to disease control or to individual test substances
[3] = tested on: Valproic acid-induced autism disorder in albino Wistar rats; experiment: Morris water maze test in Valproic acid-induced autism disorder; format: in vivo; set-up: Escape latency / Retention time: unit not given here; settings: for Escape latency / Retention time: PND 40, VPA 400 mg/kg, oral daily PND 14 to PND 40, mean ± SEM; for Learning and memory activities, Morris water maze (in words): PND 40, compared to Disease control or to Group-3 and Group-4
Method: The present study was to evaluate the effect of test substances on Valproic acid induced Autism spectrum disorder in wistar rats. The animals (50 animals) were divided into five groups each group consisting of 10 animals (5 animals per sex). Animals in Group-1 were treated with vehicle (0.5% CMC), Group-2 was treated with Valproic acid (VPA) 400 mg/kg via subcutaneous route, Group-3, Group-4 and Group-5 were treated with test substance Agmatine Sulphate (25.83 mg/kg), Nicotinamide Riboside chloride (6.46 mg/kg) and Agmatine Sulphate+Nicotinamide Riboside chloride (25.83 mg/kg+6.46 mg/kg) respectively, according to the body weight of animals. At the end of the experimental period, blood was collected from each group for biochemical analyses. On postnatal day 40 (PND 40), all the animals were exposed to the Morris water maze test and Open field test for specific time periods to determine the autism-like behaviors of the test substances. […] The experiment was performed in 14-day old male and female off springs. The weight of the rat pups on the first day of the experiment was 20-40 grams. Sodium Valproate at dose of 400 mg/kg was freshly prepared and administered via subcutaneous route to the rat pups on postnatal day 14 (PND 14). All the animals were divided into five groups and each group contained the same amount of male and female offspring (5 males and 5 females, per group). Animals in Group-1 served as Normal control and were treated with 0.5% CMC, Group-2 served as Disease control and were treated with VPA (400 mg/kg) via intraperitoneally (i.p.), whereas Group-3 was treated with Test-1 Agmatine Sulphate (25.83 mg/kg), Group-4 was treated with Test-2 Nicotinamide Riboside chloride (6.46 mg/kg) and Group-5 was treated with Test-1+Test-2 Agmatine Sulphate+Nicotinamide Riboside chloride (25.83 mg/kg+6.46 mg/kg). The assigned test substances were administered once daily from PND 14 to PND 40. In addition, behaviors of experimental animals were determined via Morris water maze and open field test. […] The dose volume administered to each rat was 10 ml/kg/day. Similarly, 0.5% CMC for Normal control and Disease control groups was administered orally at the same dose volume for a minimum of 26 consecutive days. The dose volume was calculated for individual animals on the first day of the treatment and was re-calculated according to the recent body weights recorded during the study. Daily individual dose volumes were recorded in the study records. The animals were exposed to a pool consisting of 4 quadrants (Northeast, Southeast, Southwest, and Northwest) which was filled with tap water (25° C., 40 cm deep) and covered with nontoxic milk. The removable platform was immersed below the water surface of one quadrant. Each animal had to memorize the location of the immersed platform by using specific visual cues placed around the outside of the tank. The time spent by each rat in finding and climbing on the immersed platform was recorded as the escape latency. Twenty-four hours later, the animal was re-exposed to the same condition, except that the immersed platform had been removed. The mean time that each rat spent in the target quadrant in order to search for the missing platform was noted as the retention time and was used as the index of retrieval memory. Both the escape latency and the retention time in a 5-minute exposure time were used as indices of learning and memory. A blind observer always stood at the same position, and care was taken not to disturb the relative location of water maze with respect to other objects in the laboratory. The determination of the spatial memory capacity via this test was done on PND 40.

[4] = tested on: Major depression disorder in Wistar rats; experiment: Open field test (ambulatory behavior) in Reserpine-induced major depression disorder; format: in vivo
Interleukin - 6 = experiment: Interleukin-6 level in global ischemia reperfusion induced brain injury (cerebral infarction) model; format: in vivo, Wistar rats; settings: global ischemia (30 min)/72 h reperfusion, oral daily for 10 days, mean ± SEM, n = 6
TNF alpha = TNF alpha level in global ischemia reperfusion induced brain injury (cerebral infarction) model; format: in vivo, Wistar rats; settings: global ischemia (30 min)/72 h reperfusion, oral daily for 10 days, mean ± SEM, n = 6
[5] = forced swim test 5 min, Reserpine 1.0 mg/kg induced, oral daily 7 days, mean ± SEM, n = 6

NC(=O)c1ccc[n+]([C@@H]2O[C@H](CO)[C@@H](O)[C@H]2O)c1.[Cl-] [Nicotinamide Riboside chloride, nicotinamide riboside chloride]
Autism-like behavior (in words) [1]: improved autism-like behavior
Immobility / mobility in forced swim test (in words) [2]: mobility of the animals in the treatment groups increased
Climbing [2, 5]: 15.50 ± 0.62
Immobility [2, 5]: 105.50 ± 0.85
Total time spent in active swimming [2, 5]: 185.33 ± 0.67 s
Escape latency ([3]; Female): 15.20 ± 0.37
Retention time ([3]; Female): 26.40 ± 0.68
Escape latency ([3]; Male): 15.40 ± 0.51
Retention time ([3]; Male): 26.20 ± 0.49
Learning and memory activities, Morris water maze (in words) [3]: significantly increased learning and memory activities
No. of open arm entries (Open field test) ([4]; 6 minute session, Reserpine induced, oral daily 7 days, mean ± SEM, n = 6): 31.33 ± 0.71
Interleukin - 6 Levels (Interleukin - 6): 109.56 ± 0.27 pg/mL
TNF alpha Level (TNF alpha): 160.33 ± 4.79 pg/mL

N=C(N)NCCCCN.O=S(=O)(O)O [Agmatine sulphate]
Autism-like behavior (in words) [1]: improved autism-like behavior
Immobility / mobility in forced swim test (in words) [2]: mobility of the animals in the treatment groups increased
Climbing [2, 5]: 16.50 ± 0.43
Immobility [2, 5]: 99.67 ± 0.67
Escape latency ([3]; Female): 14.20 ± 0.37
Retention time ([3]; Female): 24.80 ± 0.58
Escape latency ([3]; Male): 14.00 ± 0.71
Retention time ([3]; Male): 24.20 ± 0.73
Learning and memory activities, Morris water maze (in words) [3]: significantly increased learning and memory activities
No. of open arm entries (Open field test) ([4]; po): 36.00 ± 0.86
Interleukin - 6 Levels (Interleukin - 6): 91.39 ± 0.92 pg/mL
TNF alpha Level (TNF alpha): 142.00 ± 1.53 pg/mL
